Measurements taken from patent publication US7659293B2, “α-Amino-N-hydroxy-acetamide derivatives” (Novartis AG, priority 2001, dated 2010).
Where a name gives a salt, the structure may show the parent alone.

Target: T1, MT1-MMP (Homo sapiens, UniProt P50281)
T1 construct: initiator Met (ATG start codon from NdeI site) (N); made in house
Assay: MT1-MMP fluorogenic substrate inhibition assay
Type: biochemical
Settings: mean ± SEM of three independent experiments
Protocol: The inhibitory activities of compounds of formula I on MT1-MMP, MMP1 (collagenase 1) and MMP2 (gelatinase A) can be determined as follows:
Stock solutions of substrate (MCA-Pro-Leu-Gly-Leu-Dpa-Ala-Arg-NH2 (SEQ ID NO: 1), C. G. Knight, et al, FEBS lett., 296, 263-266, (1992)), are prepared in 100% DMSO at a concentration 1.0 mM.
Stock solutions of inhibitors are prepared in 100% DMSO. The inhibitor is diluted into the assays from a solution in 100% DMSO, and controls substitute an equal volume of DMSO so that the final DMSO concentration from inhibitor and substrate dilutions in all assays is 6.0%. Assays are performed in assay buffer (150 mM NaCl, 10 mM CaCl2, 50 mM Tris-Cl pH7.5, 0.05% Brij-35) containing 6.0% DMSO once the substrate and inhibitor are diluted into it. […] The fluorescence changes are monitored using an excitation wavelength of 320 nm and an emission wavelength of 340 nm. […] The reaction mixture is preincubated with the inhibitor for 30 min, the reaction is started by the addition of MMP enzyme and the fluorescence intensity is measured for 10 min. […]
Expression and Purification: The subcloned CD-MT1-MMP is used to transfect E. coli strain BL21[DE3] (Hanahan, D. J. Mol. Biol. 1983; 166(4):557-80) and expressed as insoluble inclusion body materials. […] Fractions of 1 ml are collected and […] aliquots are analyzed by immunoblotting. […]

CN(C)c1ccc(CN(CC(=O)NO)S(=O)(=O)c2ccc(OCC3CC3)cc2)cc1 [Example 2, 2-[(4-Cyclopropylmethoxy-benzenesulfonyl)-(4-dimethylamino-benzyl-amino]-N-hydroxy-acetamide HCl salt]
IC50: 4.67 ± 0.17 nM
